Laboratory results published in PubChem BioAssay AID248 (DTP/NCI, 2004).
Inconclusive results and toxic doses are left out. No stated cut-off is given here; in the data, active means T/C of 150% or more; inactive means T/C below 125%.

Tested on: L1210 leukemia ip in BDF1 mice, survival T/C
Assay: NCI In Vivo Anticancer Drug Screen. Data for tumor model L1210 Leukemia (intraperitoneal) in B6D2F1 (BDF1) mice
Conditions: endpoint: mean survival time, higher = longer survival
Summary of the method: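 Mice bearing the transplanted tumor received compound or vehicle. Survival of the treated group was divided by that of the vehicle-treated control group to give the ratio.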

[1] = dose: 100.0 mg/kg/injection, schedule: Q01DX009 (ip), vehicle: Klucel (hydroxypropylcellulose) (HPC)
[2] = dose: 200.0 mg/kg/injection, schedule: Q01DX009 (ip), vehicle: Klucel (hydroxypropylcellulose) (HPC)
[3] = dose: 400.0 mg/kg/injection, schedule: Q01DX009 (ip), vehicle: Klucel (hydroxypropylcellulose) (HPC)
[4] = dose: 100.0 mg/kg/injection, schedule: Q04DX003 (ip), vehicle: saline with Tween-80
[5] = dose: 100.0 mg/kg/injection, schedule: Q01DX001 (ip), vehicle: other
[6] = dose: 100.0 mg/kg/injection, schedule: Q01DX009 (ip), vehicle: saline with Tween-80
[7] = dose: 200.0 mg/kg/injection, schedule: Q01DX009 (ip), vehicle: saline with Tween-80
[8] = dose: 400.0 mg/kg/injection, schedule: Q01DX009 (ip), vehicle: saline with Tween-80
[9] = dose: 100.0 mg/kg/injection, schedule: Q04DX002 (ip), vehicle: Klucel (hydroxypropylcellulose) (HPC)
[10] = dose: 200.0 mg/kg/injection, schedule: Q04DX002 (ip), vehicle: Klucel (hydroxypropylcellulose) (HPC)
[11] = dose: 400.0 mg/kg/injection, schedule: Q04DX002 (ip), vehicle: Klucel (hydroxypropylcellulose) (HPC)
[12] = dose: 100.0 mg/kg/injection, schedule: Q04DX003 (ip), vehicle: Klucel (hydroxypropylcellulose) (HPC)
[13] = dose: 200.0 mg/kg/injection, schedule: Q04DX003 (ip), vehicle: Klucel (hydroxypropylcellulose) (HPC)
[14] = dose: 400.0 mg/kg/injection, schedule: Q04DX003 (ip), vehicle: Klucel (hydroxypropylcellulose) (HPC)
[15] = dose: 50.0 mg/kg/injection, schedule: Q01DX009 (ip), vehicle: saline with Tween-80

Measured: T/C

CC(O)C(=O)N(O)c1ccccc1OCc1ccccc1 (stereo not drawn)
inactive: dose: 75.0 mg/kg/injection, schedule: Q01DX001 (ip), vehicle: acetone 104 % of control | dose: 75.0 mg/kg/injection, schedule: Q04DX003 (ip), vehicle: acetone 102 % of control | dose: 150.0 mg/kg/injection, schedule: Q01DX001 (ip), vehicle: acetone 91 % of control | dose: 150.0 mg/kg/injection, schedule: Q04DX003 (ip), vehicle: acetone 98 % of control | dose: 300.0 mg/kg/injection, schedule: Q01DX001 (ip), vehicle: acetone 89 % of control | dose: 300.0 mg/kg/injection, schedule: Q04DX003 (ip), vehicle: acetone 96 % of control

COc1ccc(OC(=O)Nc2cc([N+](=O)[O-])ccc2F)cc1
inactive: [1] 106 % of control | [2] 93 % of control | [3] 93 % of control

Cc1ccc(N=Cc2cc(Br)cc(Br)c2O)cc1.Cc1ccc(N=Cc2cc(Br)cc(Br)c2O)cc1.[Co]
inactive: dose: 25.0 mg/kg/injection, schedule: Q04DX003 (ip), vehicle: saline with Tween-80 104 % of control | dose: 50.0 mg/kg/injection, schedule: Q04DX003 (ip), vehicle: saline with Tween-80 100 % of control | [4] 100 % of control

O=C(NCCc1ccccc1)C1CCN(CCc2ccccc2)CC1
inactive: [5] 107 % of control

O=C(Nc1ccc2c(c1)Cc1cc(Br)ccc1-2)C(F)(F)F
inactive: [6] 97 % of control | [7] 92 % of control | [8] 94 % of control

CC(C)(N)CN
inactive: dose: 100.0 mg/kg/injection, schedule: Q01DX001 (ip), vehicle: saline 96 % of control | dose: 200.0 mg/kg/injection, schedule: Q01DX001 (ip), vehicle: saline 96 % of control | dose: 400.0 mg/kg/injection, schedule: Q01DX001 (ip), vehicle: saline 94 % of control

O=C1OC(=O)C2(Br)C3C=CC(C3)C12Br (stereo not drawn)
inactive: [4] 98 % of control | dose: 200.0 mg/kg/injection, schedule: Q04DX003 (ip), vehicle: saline with Tween-80 96 % of control | dose: 400.0 mg/kg/injection, schedule: Q04DX003 (ip), vehicle: saline with Tween-80 91 % of control

COc1ccccc1NC(=O)N(Cc1ccccc1)C(C)(C)C
inactive: [9] 95 % of control | [10] 100 % of control | [11] 88 % of control

O=S1(=O)CC(c2cccc3ccccc23)Nc2ccccc21 (stereo not drawn)
inactive: dose: 100.0 mg/kg/injection, schedule: Q01DX001 (ip), vehicle: Klucel (hydroxypropylcellulose) (HPC) 97 % of control | [1] 95 % of control | [12] 95 % of control | dose: 200.0 mg/kg/injection, schedule: Q01DX001 (ip), vehicle: Klucel (hydroxypropylcellulose) (HPC) 93 % of control | [2] 95 % of control | [13] 90 % of control | dose: 400.0 mg/kg/injection, schedule: Q01DX001 (ip), vehicle: Klucel (hydroxypropylcellulose) (HPC) 89 % of control | [3] 94 % of control | [14] 97 % of control

Fc1ccc2[nH]c3c(c2c1)CP(c1ccccc1)CC3 (stereo not drawn)
inactive: [12] 100 % of control | [13] 96 % of control | [14] 105 % of control

COc1cc(Cl)ccc1NC(=O)Oc1ccc(NC(C)=O)cc1
inactive: dose: 100.0 mg/kg/injection, schedule: Q01DX009 (ip), vehicle: saline 110 % of control | dose: 200.0 mg/kg/injection, schedule: Q01DX009 (ip), vehicle: saline 92 % of control | dose: 400.0 mg/kg/injection, schedule: Q01DX009 (ip), vehicle: saline 103 % of control

CC(N)C(=O)NC(C(=O)O)C(C)O (stereo not drawn)
inactive: dose: 25.0 mg/kg/injection, schedule: Q04DX002 (ip), vehicle: saline 98 % of control | dose: 50.0 mg/kg/injection, schedule: Q04DX002 (ip), vehicle: saline 121 % of control | dose: 100.0 mg/kg/injection, schedule: Q04DX002 (ip), vehicle: saline 113 % of control

Nc1ccccc1SC(CC(=O)c1ccccc1)c1cccc([N+](=O)[O-])c1 (stereo not drawn)
inactive: dose: 100.0 mg/kg/injection, schedule: Q01DX005 (ip), vehicle: Klucel (hydroxypropylcellulose) (HPC) 112 % of control | [9] 95 % of control | dose: 200.0 mg/kg/injection, schedule: Q01DX005 (ip), vehicle: Klucel (hydroxypropylcellulose) (HPC) 105 % of control | [2] 87 % of control | [10] 110 % of control | dose: 400.0 mg/kg/injection, schedule: Q01DX005 (ip), vehicle: Klucel (hydroxypropylcellulose) (HPC) 91 % of control | [11] 89 % of control

CC(C)CCOC(=O)C(O)C(C)(Cl)c1ccccc1 (stereo not drawn)
inactive: [9] 111 % of control | [10] 91 % of control | [11] 100 % of control

CC(=O)N1CC(n2nnc3c(N)ncnc32)CC1CO (stereo not drawn)
inactive: dose: 12.5 mg/kg/injection, schedule: Q04DX002 (ip), vehicle: saline with Tween-80 98 % of control | dose: 25.0 mg/kg/injection, schedule: Q04DX002 (ip), vehicle: saline with Tween-80 102 % of control | dose: 50.0 mg/kg/injection, schedule: Q04DX002 (ip), vehicle: saline with Tween-80 94 % of control

Cc1cccc(NNC(=S)Nc2ccccc2)c1
inactive: [6] 97 % of control | [7] 97 % of control | [8] 94 % of control

C=C(C)C1CCC2(C(=O)O)CCC3(C)C(CCC4C5(C)CCC(=O)C(C)(C)C5CCC43C)C12 (stereo not drawn)
inactive: [12] 102 % of control | [13] 96 % of control | [14] 94 % of control

CCOC(=O)NC(CI)c1ccccc1 (stereo not drawn)
inactive: [15] 96 % of control | [6] 88 % of control | [7] 96 % of control

COC1OC2COC(c3ccccc3)OC2C(OC(=S)N(C)C)C1OC(=S)N(C)C (stereo not drawn)
inactive: dose: 100.0 mg/kg/injection, schedule: Q04DX003 (ip), vehicle: saline sonified 94 % of control | dose: 200.0 mg/kg/injection, schedule: Q04DX003 (ip), vehicle: saline sonified 92 % of control | dose: 400.0 mg/kg/injection, schedule: Q04DX003 (ip), vehicle: saline sonified 92 % of control

O=C(CS(=O)(=O)O)Nc1ccccc1 (tested in a mixture with another compound)
inactive: dose: 100.0 mg/kg/injection, schedule: Q01DX001 (ip), vehicle: saline with Tween-80 93 % of control | dose: 200.0 mg/kg/injection, schedule: Q01DX001 (ip), vehicle: saline with Tween-80 103 % of control | dose: 400.0 mg/kg/injection, schedule: Q01DX001 (ip), vehicle: saline with Tween-80 90 % of control

CN(C)c1ccc(/C=N/NC(=O)c2ccccc2NC(=O)C2CC2)cc1
inactive: [1] 93 % of control | [2] 104 % of control | [3] 90 % of control

Cc1ccc(NC(=S)Nc2ccc(C(C)C)cc2)c(C)c1
inactive: [9] 118 % of control | [10] 103 % of control | [11] 100 % of control

Fc1c(F)c(F)c(P(c2ccccc2)c2ccccc2)c(F)c1F
inactive: [9] 95 % of control | [10] 95 % of control | [11] 111 % of control

Cn1c(=O)c2[nH]c(C3CC=CCC3)nc2n(C)c1=O (stereo not drawn)
inactive: dose: 50.0 mg/kg/injection, schedule: Q01DX001 (ip), vehicle: other 97 % of control | [5] 95 % of control | dose: 400.0 mg/kg/injection, schedule: Q01DX001 (ip), vehicle: other 94 % of control

O=C(O)CN1C(=O)CN=C(c2ccccn2)c2cc(Cl)ccc21
inactive: [1] 99 % of control | [12] 100 % of control | [2] 100 % of control | [13] 100 % of control | [3] 97 % of control | [14] 97 % of control

COc1ccc(OCCO)cc1
inactive: [1] 95 % of control | [9] 96 % of control | [2] 98 % of control | [10] 93 % of control | [3] 103 % of control | [11] 100 % of control

CSCC(NC(=O)OCc1ccccc1)C(=O)O (stereo not drawn)
inactive: [15] 111 % of control | [6] 111 % of control | [7] 101 % of control

CCC1([N+](=O)[O-])COP(N)(=O)OC1 (stereo not drawn)
inactive: dose: 5.0 mg/kg/injection, schedule: Q01DX001 (ip), vehicle: saline 105 % of control | dose: 10.0 mg/kg/injection, schedule: Q01DX001 (ip), vehicle: saline 107 % of control | dose: 20.0 mg/kg/injection, schedule: Q01DX001 (ip), vehicle: saline 124 % of control | dose: 40.0 mg/kg/injection, schedule: Q01DX001 (ip), vehicle: saline 100 % of control | dose: 80.0 mg/kg/injection, schedule: Q01DX001 (ip), vehicle: saline 96 % of control
